These results are taken from US12357585B2, “Cannabigerol and pharmaceutical compositions comprising cannabigerol for use in the treatment of insomnia” (AKASHA CORPORATION, priority 2019, dated 2025).

In the assay the test system is panel members. Briefly: Panel-mediated testing of Cannabis accessions with defined cannabinoid profiles (panel N=67, plus anecdotal evidence). In kind it is in vivo, human. The source says:
This method allowed deduction, and therefore, for the first time, the introduction of a new chemotaxonomic classification system merely based on the cannabinoid composition of the plant samples (strains). 15 chemotypes are defined and many more sub-chemotypes are lately added. The samples given to panel members (accessions) contained Cannabis flos, the dried flower tips of the female Cannabis plant. […] All the 45,000 different “strains” were collected and compared to the panel data and data derived from retrospective (meta-) research and anecdotal evidence mainly originated from users, for both recreative and medicinal usage, from the Netherlands. Accession from Spain is included as a parameter and seemed important for the chemotaxonomic scheme for Cannabis species.
The anecdotal evidence is derived from and the panel members are selected from persons, men and women, of the age of 18 till 72 years old. They consumed cannabis joints or vapor having defined cannabinoid profiles, and record the effect during time. Monitoring takes 24 hours, to include data about wear-off problems after night (the next day). The cannabinoids according to the invention may for example be consumed as follows: • 1—Administered as Cannabis simplex per 50 mg unit dose for self-titration. […]

In the case of `CCCCCc1cc(O)c(C/C=C(\C)CCC=C(C)C)c(O)c1` [Cannabigerol], the “sleep attained by subjects” value (all subjects, in high concentration range "narcotic") is reported as “good or very good deep”. For the same molecule, the Effects entry (panel session, vapor, joints or tea potion, ad libitum, effects dosage and patient related) is given as ““indica” or “stoned” effects; drowsiness”.
